Drawing on article PMC3392265 (PLoS ONE, 2012), this text covers inhibition for 4 compounds.

The target of the assay is T1, GenK (Corynebacterium glutamicum, UniProt Q8NLB7).
T1 construct: full-length, native gene in intact C. glutamicum RES167 cells; mutants expressed from pXMJ19 in RES167 delta-genK; untagged as far as told; 12 predicted transmembrane helices
T1 sequence (Q8NLB7 whole entry): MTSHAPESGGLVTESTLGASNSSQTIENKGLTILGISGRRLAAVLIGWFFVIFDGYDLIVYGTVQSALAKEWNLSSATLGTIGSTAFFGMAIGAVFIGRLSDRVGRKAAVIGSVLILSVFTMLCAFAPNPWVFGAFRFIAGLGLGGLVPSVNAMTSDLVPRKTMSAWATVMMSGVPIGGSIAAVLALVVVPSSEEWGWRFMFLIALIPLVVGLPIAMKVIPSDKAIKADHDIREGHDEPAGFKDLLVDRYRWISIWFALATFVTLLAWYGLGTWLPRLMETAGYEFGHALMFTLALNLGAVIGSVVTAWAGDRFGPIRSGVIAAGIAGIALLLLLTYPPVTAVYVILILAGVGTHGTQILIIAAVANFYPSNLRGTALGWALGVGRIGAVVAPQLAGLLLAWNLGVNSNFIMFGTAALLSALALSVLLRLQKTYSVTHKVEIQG
The experiment in a line: inhibition of […]-gentisate uptake in RES167 cells. The class given is cell-based.
Regarding `O=C(O)c1cccc(O)c1` [3-hydroxybenzoate], the inhibition (in general, how much of the control response was suppressed) at 800 µM was determined as 94%. With `O=C(O)c1ccccc1` [benzoate], the inhibition at 800 µM was in the range of 40 to 60%. In turn, `Oc1ccccc1O` [catechol] had an inhibition at 800 µM of 40 to 60%. To `O=C(O)c1ccc(O)c(O)c1` [protocatechuate] belongs 40 to 60%.
